Measurements from patent US12343676B2, “Process and system for capture of carbon dioxide” (COMMONWEALTH SCIENTIFIC AND INDUSTRIAL RESEARCH ORGANISATION, priority 2017, dated 2025).
Where two headings read alike, the source gives them in different places.

Assays:
pKa at 25 °C = type: physicochemical
[1] = Protonation constants with enthalpies and entropies, 15.0-45.0 °C; type: physicochemical; conditions: for ΔH° of log K carb Prot 2 / ΔH° of log K prot / ΔS° of log K carb Prot 2 / ΔS° of log K prot: 15.0-45.0 °C
Text: From the data in Table 2 the first protonation constants of AMPy, log K prot, are similar to MEA and BZA and fall within a suitable range for CO2 capture processes. Importantly, the large and desired protonation enthalpy (ΔH°) observed for BZA is largely maintained in the AMPy derivatives (−53.9 to −46.6).

[2] = cited from earlier work
[3] = Carbamate stability constants with enthalpies and entropies, 15.0-45.0 °C; type: physicochemical
[4] = Bubble reactor precipitation propensity with pure CO2; type: physicochemical; conditions: pure CO2 at atmospheric pressure, ambient temperature, aqueous
Protocol: As part of the absorbent screening process concentrated aqueous 3-AMPy was evaluated for its potential to form solid precipitates in the presence of CO2 at high concentrations. […] A simple bubble reactor was utilised to determine the precipitation propensity while passing a pure CO2 gas stream at atmospheric pressure into a concentrated 3-AMPy solution held at ambient temperature. A concentration of 80 wt % 3-AMPy was achieved before precipitation of the carbamate salt was observed. While a precipitate was observed, it is unlikely this will occur in the pilot plant given the aggressive conditions employed in the simple lab based study. Furthermore, similar precipitation behaviour has been observed for other common aqueous amines in highly concentrated solutions but which are operated successfully in pilot plants.

[5] = water, Table 7, (aminomethyl)pyridines, read-out: pKa of conjugate acid at 25° C. in water

Row | SMILES | pKa (pKa at 25 °C; 25 °C, read-out: pKa) | pKa (pKa at 25 °C; [5]) | ΔH° of log K carb Prot 2 [1] [kJ · mol^−1] | ΔH° of log K prot [1] [kJ · mol^−1] | ΔS° of log K carb Prot 2 [1] [J · mol^−1 · K^−1] | ΔS° of log K prot [1] [J · mol^−1 · K^−1] | log K carb Prot 2 ([1]; 15 °C) | log K prot ([1]; 15 °C) | log K carb Prot 2 ([1]; 25 °C) | log K prot ([1]; 25 °C) | log K prot ([1]; 35 °C) | log K carb Prot 2 ([1]; 45 °C) | log K prot ([1]; 45 °C) | pKa at 25° C. ([2]; Table 8) | ΔH° of log K carb ([3]; 15.0-45.0 °C) [kJ · mol^−1] | ΔS° of log K carb ([3]; 15.0-45.0 °C) [J · mol^−1 · K^−1] | log K carb (carbamate stability constant) ([3]; 15 °C) | log K carb (carbamate stability constant) ([3]; 25 °C) | log K carb (carbamate stability constant) ([3]; 35 °C) | log K carb (carbamate stability constant) ([3]; 45 °C) | further results
1 | NCc1ccccn1 [2-AMPy, 2-(aminomethyl)pyridine] | 8.6 | 8.7 | −17.9 | −46.6 | 24.5 | −10.1 | 1.96 | 8.98 | 1.86 | 8.68 | 8.41 | 1.75 | 8.19 | – | – | – | – | – | – | – | –
2 | OCCC1CCCCN1 (stereo not shown) [2-piperidinylethanol] | – | – | – | – | – | – | – | – | – | – | – | – | – | 10.5 | – | – | – | – | – | – | pKa at 25° C. [2]: 10.5
3 | OCC1CCCCN1 (stereo not shown) [2-piperidinylmethanol] | – | – | – | – | – | – | – | – | – | – | – | – | – | 10.1 | – | – | – | – | – | – | pKa at 25° C. [2]: 10.1
4 | NCc1cccnc1 [3-AMPy, 3-(aminomethyl)pyridine] | 8.6 | 8.8 | −14.5 | −50.6 | −15.2 | 0.8 | 3.42 | 9.11 | 3.34 | 8.83 | 8.51 | 3.17 | 8.26 | – | −36.83 | 82.97 | 2.34 | 2.11 | 1.93 | 1.70 | log K carb Prot 2 ([1]; 35 °C): 3.25; concentration achieved before precipitation of the carbamate salt [4]: 80 wt %
5 | Nc1cccnc1 [3-Aminopyridine, reference compound] | – | – | – | – | – | – | – | – | – | – | – | – | – | – | – | – | – | – | – | – | pKa of conjugate acid at 25° C. in water ([2]; Table 7, aniline and aminopyridines): 6.3
6 | NCc1ccncc1 [4-AMPy, 4-(aminomethyl)pyridine] | 8.6 | 8.4 | −25.5 | −53.9 | 15.3 | 19.6 | 3.84 | 8.77 | 3.65 | 8.43 | 8.08 | 3.41 | 7.86 | – | −30.05 | −58.97 | 2.35 | 2.22 | 2.02 | 1.84 | ΔH° of log K carb Prot ([3]; 15.0-45.0 °C): −38.08 kJ · mol^−1; ΔS° of log K carb Prot ([3]; 15.0-45.0 °C): 4.91 J · mol^−1 · K^−1; log K carb Prot ([3]; 15 °C): 7.15; log K carb Prot ([3]; 25 °C): 6.95; log K carb Prot ([3]; 35 °C): 6.69; log K carb Prot ([3]; 45 °C): 6.52; log K carb Prot 2 ([1]; 35 °C): 3.48
7 | OCC1CCNCC1 [4-piperidinylmethanol] | – | – | – | – | – | – | – | – | – | – | – | – | – | 10.6 | – | – | – | – | – | – | pKa at 25° C. [2]: 10.6
8 | NCc1ccccc1 [BZA, benzylamine, reference compound] | – | – | – | −59.5 | – | 20 | – | 9.77 | – | 9.43 | 8.95 | – | 8.61 | – | −36 | −82 | 2.20 | 2.01 | 1.81 | 1.58 | –
9 | NCCO [MEA, monoethanolamine, reference compound] | – | – | – | – | – | – | – | – | – | – | – | – | – | – | −18 | −35 | 1.85 | 1.76 | 1.66 | 1.55 | –
